Laboratory results taken from US20230064983A1 (priority 2020, published 2023).
Several values for one entry are separate records, joined by “and”; a condition that tells them apart may be missing. Equal entries are not always repeated.

Tests used:
Bub1 = target: T1, Bub1 (Homo sapiens, UniProt O43683); test: Bub1 high ATP kinase assay (TR-FRET); format: biochemical; conditions: Bub1 high ATP (2 mM) IC50, TR-FRET, 2 mM ATP; Table 3
T1 construct: catalytic domain of human Bub1 (amino acids 704-1085); His6 (N); made in house; host or cells: insect cells (Hi5)
How it was run: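 Enzyme was His6-tagged human Bub1 catalytic domain (aa 704-1085) from Hi5 insect cells, typically about 200 ng/ml, with a biotinylated peptide substrate at high ATP. Reaction ran 60 min at 22 °C, then was stopped with EDTA. Phosphopeptide was detected by TR-FRET (anti-phosphoserine antibody, Eu-labelled anti-mouse IgG, streptavidin-XL665), read as the 665/620 nm emission ratio.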

[1] = target: Ba/F3-EGFR-D770_N771insNPG cells (Homo sapiens, UniProt P00533, INS772GNP, cells depend on it); test: Ba/F3 cell survival assay, EGFR D770_N771insNPG; format: cell-based; conditions: EGFR Exon20 insertion mutations; Table 6; read-out: BA/F3 (insNPG) IC50
[2] = target: Ba/F3-EGFR-V769_D770insASV cells (Homo sapiens, UniProt P00533, DUP767-769, cells depend on it); test: Ba/F3 cell survival assay, EGFR V769_D770insASV; format: cell-based; conditions: EGFR Exon20 insertion mutations; Table 6; read-out: BA/F3 (ASV) IC50
[3] = target: Ba/F3-EGFR-N771_P772insH cells (Homo sapiens, UniProt P00533, INS771H, cells depend on it); test: Ba/F3 cell survival assay, EGFR N771_P772insH; format: cell-based; conditions: EGFR Exon20 insertion mutations; Table 6; read-out: BA/F3 (EGFR N771_P772insH) IC50
[4] = target: Ba/F3-EGFR-H773_V774insNPH cells (Homo sapiens, UniProt P00533, DUP771-773, cells depend on it); test: Ba/F3 cell survival assay, EGFR H773_V774insNPH; format: cell-based; conditions: EGFR Exon20 insertion mutations; Table 6; read-out: BA/F3 (EGFR H773_774insNPH) IC50
Ba/F3-EGFR-L858R cells = Ba/F3-EGFR-L858R cells (Homo sapiens, UniProt P00533, L858R, cells depend on it); test: Ba/F3 cell survival assay, EGFR L858R; format: cell-based; conditions: classical activating and rare EGFR mutations; Table 7; read-out: BA/F3 (EGFR L858R) IC50
[5] = target: Ba/F3-EGFR-D770_N771insSVD C797S cells (Homo sapiens, UniProt P00533, DUP768-770/C797S, cells depend on it); test: Ba/F3 cell survival assay, EGFR D770_N771insSVD C797S; format: cell-based; conditions: aquired resistance space; Table 8; read-out: BA/F3 (EGFR 0770_N771 insSVD C797S) IC50
[6] = target: Ba/F3-EGFR-E746_A750del C797S cells (Homo sapiens, UniProt P00533, DEL746-750/C797S, cells depend on it); test: Ba/F3 cell survival assay, EGFR E746_A750del C797S; format: cell-based; conditions: aquired resistance space; Table 8; read-out: BA/F3 (EGFR E746_A750del C797S) IC50
PC9 cells = test: PC9 cell proliferation assay (EGFRex19del); format: cell-based; conditions: Homo sapiens, PC-9, 72 h, read-out: PC9 IC50
Experimental: Cellular Data Description (PC9 cells, EGFRex19del)
(§1) PC9 cells were purchased from Tokyo Medical College. 400 PC9 cells per well were seeded in growth medium (DMEM, 10% FCS) in a 384-well plate (CORNING #3571). Seed reference plate for time zero determination on the same day. All plates were incubated overnight at 37° C. After 24 hours, test compound were added in 7-step dilution using HP Compound printer and incubated at 37° C. for 72 h. After 3 days, 30 μL/well CTG solution (Promega Cell Titer Glo solution; catalog #G755B and G756B) were added to each well, incubated for 30 minutes and the plate were read on PheraStar. Proliferation is calculated after subtracting time zero luminescence values from day 4 values and comparing to untreated wells.
(§2) The IC50 values were determined using the four parameter fit.

HCC-827 cells = test: HCC-827 cell proliferation assay (EGFRex19del); format: cell-based; conditions: Homo sapiens, HCC827, 72 h, read-out: HCC-827 IC50
Experimental: Cellular Data Description (HCC-827 cells, EGFRex19del)
as §1, with “HCC-827 cells” for “PC9 cells”, “from ATCC.” for “from Tokyo Medical College.”, “[…]” for “400 PC9”, “medium (RPM11640,” for “medium (DMEM,”
as §2

Ba/F3-EGFR-E746_A750del C797S cells, sequence (P00533 with tags, fused parts or gaps DEL746-750/C797S): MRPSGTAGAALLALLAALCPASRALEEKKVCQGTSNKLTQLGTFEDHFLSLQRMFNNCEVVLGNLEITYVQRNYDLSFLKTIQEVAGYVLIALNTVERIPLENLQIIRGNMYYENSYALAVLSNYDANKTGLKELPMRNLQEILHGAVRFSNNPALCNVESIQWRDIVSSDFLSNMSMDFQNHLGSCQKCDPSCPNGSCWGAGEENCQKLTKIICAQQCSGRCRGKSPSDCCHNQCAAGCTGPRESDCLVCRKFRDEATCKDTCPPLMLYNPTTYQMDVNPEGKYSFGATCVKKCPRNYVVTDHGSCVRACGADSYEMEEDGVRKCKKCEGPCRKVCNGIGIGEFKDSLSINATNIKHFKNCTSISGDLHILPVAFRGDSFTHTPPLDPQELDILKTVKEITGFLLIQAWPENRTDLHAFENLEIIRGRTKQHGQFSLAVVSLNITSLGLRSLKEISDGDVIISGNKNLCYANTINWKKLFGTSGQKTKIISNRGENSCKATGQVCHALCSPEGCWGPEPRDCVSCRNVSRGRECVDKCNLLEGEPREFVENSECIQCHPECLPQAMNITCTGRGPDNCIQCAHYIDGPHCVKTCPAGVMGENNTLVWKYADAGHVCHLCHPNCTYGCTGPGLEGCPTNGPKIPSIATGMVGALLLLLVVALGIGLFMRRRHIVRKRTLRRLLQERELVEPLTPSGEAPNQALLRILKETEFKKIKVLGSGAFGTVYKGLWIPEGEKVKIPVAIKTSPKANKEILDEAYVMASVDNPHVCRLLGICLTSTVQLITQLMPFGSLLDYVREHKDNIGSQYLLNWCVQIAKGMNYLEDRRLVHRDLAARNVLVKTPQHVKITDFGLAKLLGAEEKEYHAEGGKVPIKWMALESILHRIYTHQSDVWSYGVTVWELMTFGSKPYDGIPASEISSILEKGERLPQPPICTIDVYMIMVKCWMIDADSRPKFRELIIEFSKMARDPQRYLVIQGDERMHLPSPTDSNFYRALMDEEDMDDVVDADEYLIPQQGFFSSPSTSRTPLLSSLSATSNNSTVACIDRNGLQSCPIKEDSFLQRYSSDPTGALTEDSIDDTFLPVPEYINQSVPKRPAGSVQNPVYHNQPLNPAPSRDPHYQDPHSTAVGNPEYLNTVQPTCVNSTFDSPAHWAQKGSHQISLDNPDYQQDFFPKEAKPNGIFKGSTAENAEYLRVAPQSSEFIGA
T1 sequence (O43683 704-1085): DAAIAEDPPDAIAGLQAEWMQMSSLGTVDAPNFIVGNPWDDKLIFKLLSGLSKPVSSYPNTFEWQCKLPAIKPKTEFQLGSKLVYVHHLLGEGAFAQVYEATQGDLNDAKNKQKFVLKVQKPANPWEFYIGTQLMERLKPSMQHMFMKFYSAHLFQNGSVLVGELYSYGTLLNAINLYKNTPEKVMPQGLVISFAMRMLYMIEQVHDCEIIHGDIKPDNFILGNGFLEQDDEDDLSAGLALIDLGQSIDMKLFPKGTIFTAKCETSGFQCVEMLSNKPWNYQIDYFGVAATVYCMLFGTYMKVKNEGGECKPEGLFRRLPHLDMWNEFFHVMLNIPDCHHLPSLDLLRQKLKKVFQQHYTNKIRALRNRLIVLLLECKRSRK
Ba/F3-EGFR-D770_N771insNPG cells, sequence (P00533 with tags, fused parts or gaps INS772GNP): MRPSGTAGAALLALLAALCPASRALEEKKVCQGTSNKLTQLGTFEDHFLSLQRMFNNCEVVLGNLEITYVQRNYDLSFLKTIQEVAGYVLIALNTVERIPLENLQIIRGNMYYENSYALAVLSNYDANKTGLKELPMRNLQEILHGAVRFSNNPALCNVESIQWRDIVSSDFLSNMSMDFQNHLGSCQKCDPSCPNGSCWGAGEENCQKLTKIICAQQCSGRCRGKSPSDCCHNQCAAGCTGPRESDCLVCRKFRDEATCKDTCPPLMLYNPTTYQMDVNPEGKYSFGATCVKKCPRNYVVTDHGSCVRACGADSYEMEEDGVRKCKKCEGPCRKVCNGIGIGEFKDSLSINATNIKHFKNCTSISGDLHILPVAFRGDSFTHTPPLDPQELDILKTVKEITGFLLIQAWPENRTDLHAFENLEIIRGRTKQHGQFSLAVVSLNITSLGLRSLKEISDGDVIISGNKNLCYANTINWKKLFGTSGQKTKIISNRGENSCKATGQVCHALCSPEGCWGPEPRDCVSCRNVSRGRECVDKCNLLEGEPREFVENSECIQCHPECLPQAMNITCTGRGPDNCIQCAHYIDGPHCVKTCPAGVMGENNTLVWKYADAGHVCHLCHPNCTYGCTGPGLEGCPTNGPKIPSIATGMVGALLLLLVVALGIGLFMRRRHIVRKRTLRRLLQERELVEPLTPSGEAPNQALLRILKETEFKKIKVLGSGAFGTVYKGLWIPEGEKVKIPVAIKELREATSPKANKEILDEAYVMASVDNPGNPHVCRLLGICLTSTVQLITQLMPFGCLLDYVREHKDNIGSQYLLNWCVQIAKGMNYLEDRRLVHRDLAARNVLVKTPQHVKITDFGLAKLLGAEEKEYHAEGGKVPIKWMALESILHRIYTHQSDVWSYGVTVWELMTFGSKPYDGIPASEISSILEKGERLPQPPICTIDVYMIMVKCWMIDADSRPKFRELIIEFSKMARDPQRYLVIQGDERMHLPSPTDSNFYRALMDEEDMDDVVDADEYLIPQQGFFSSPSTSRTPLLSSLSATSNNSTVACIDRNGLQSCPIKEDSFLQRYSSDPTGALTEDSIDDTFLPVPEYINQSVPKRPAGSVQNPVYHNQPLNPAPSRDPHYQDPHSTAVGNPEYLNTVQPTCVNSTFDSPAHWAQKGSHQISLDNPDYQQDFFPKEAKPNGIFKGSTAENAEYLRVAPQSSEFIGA
Ba/F3-EGFR-L858R cells, sequence (P00533 whole entry L858R): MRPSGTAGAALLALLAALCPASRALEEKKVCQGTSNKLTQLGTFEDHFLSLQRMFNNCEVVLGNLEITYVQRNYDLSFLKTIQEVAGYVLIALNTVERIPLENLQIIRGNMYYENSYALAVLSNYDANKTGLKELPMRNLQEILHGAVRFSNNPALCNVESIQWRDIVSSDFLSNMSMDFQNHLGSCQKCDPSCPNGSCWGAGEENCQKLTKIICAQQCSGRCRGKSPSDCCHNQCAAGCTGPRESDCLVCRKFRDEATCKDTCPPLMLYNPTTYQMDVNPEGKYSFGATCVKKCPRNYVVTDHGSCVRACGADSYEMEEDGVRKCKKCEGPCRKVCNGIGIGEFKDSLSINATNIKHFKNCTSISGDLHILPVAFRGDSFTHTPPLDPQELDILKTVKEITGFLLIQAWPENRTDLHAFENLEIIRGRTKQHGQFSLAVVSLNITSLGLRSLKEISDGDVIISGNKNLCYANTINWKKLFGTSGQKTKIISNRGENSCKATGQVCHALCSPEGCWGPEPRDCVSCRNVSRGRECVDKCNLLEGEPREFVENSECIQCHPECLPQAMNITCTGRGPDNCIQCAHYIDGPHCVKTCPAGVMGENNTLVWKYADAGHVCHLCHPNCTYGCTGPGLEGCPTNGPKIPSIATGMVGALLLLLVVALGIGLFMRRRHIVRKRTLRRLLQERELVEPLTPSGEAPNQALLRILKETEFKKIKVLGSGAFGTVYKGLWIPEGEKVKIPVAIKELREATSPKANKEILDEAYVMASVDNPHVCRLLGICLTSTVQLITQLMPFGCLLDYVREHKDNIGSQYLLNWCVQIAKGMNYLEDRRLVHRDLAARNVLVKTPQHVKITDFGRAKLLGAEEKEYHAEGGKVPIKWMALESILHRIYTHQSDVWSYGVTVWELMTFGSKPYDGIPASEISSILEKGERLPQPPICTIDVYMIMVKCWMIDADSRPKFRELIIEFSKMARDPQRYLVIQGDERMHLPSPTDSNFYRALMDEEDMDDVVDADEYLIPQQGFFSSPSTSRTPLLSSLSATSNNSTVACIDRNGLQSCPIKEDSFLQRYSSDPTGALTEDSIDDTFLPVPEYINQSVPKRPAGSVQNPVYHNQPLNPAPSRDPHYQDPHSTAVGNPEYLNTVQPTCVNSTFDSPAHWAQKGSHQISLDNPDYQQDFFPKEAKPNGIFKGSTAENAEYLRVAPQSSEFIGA

| IC50 (Bub1) | IC50 (PC9 cells) [nM] | IC50 (HCC-827 cells) [nM] | Compound | GI50 [1] [nM] | GI50 [2] [nM] | GI50 [3] [nM] | GI50 [4] [nM] | GI50 (Ba/F3-EGFR-L858R cells) [nM] | GI50 [5] [nM] | GI50 [6] [nM] |
| --- | --- | --- | --- | --- | --- | --- | --- | --- | --- | --- |
| 761 nM | 6.46 | < 3 | COc1c(Cl)cccc1Nc1c(-c2ccncc2OC[C@@H]2CCCO2)[nH]c2c1C(=O)NC1(CC1)C2 [Example 113, 3′-(3-chloro-2-methoxyanilino)-2′-(3-{[(2S)-oxolan-2-yl]methoxy}pyridin-4-yl)-1′,7′-dihydrospiro[cyclopropane-1,6′-pyrrolo[3,2-c]pyridin]-4′(5′H)-one] | 24.9 | 26 | 14.3 | 116 | 3.71 | 71.4 | 1.1 |
| 10100 nM | 4.09 | < 3 | Cc1c(Cl)cccc1Nc1c(-c2ccncc2OCC2COCCO2)[nH]c2c1C(=O)NCC2C (single isomer, unassigned) [Example 67, 3-(3-chloro-2-methyl-anilino)-2-[3-(1,4-dioxan-2-ylmethoxy)-4-pyridyl]-7-methyl-1,5,6,7-tetrahydropyrrolo[3,2-c]pyridin-4-one] | 13.5 | 40.3 | 18.3 | 117 | 3.16 | 40.6 | 0.581 |
| 1830 nM | 1.84 | < 3 | COc1c(Cl)cccc1Nc1c(-c2ccncc2OCCC(C)OC)[nH]c2c1C(=O)N[C@H](C)C2 (single isomer, unassigned) [Example 121] | 12.8 | 10.1 | 4.49 | 49.2 | 1.17 | 21.7 | 0.384 |
| > 20000 nM | 3.43 | < 3 | COc1c(Cl)cccc1Nc1c(-c2ccncc2OCC2COCCO2)[nH]c2c1C(=O)NCC2C (single isomer, unassigned) [Example 34, 3-(3-chloro-2-methoxy-anilino)-2-[3-(1,4-dioxan-2-ylmethoxy)-4-pyridyl]-7-methyl-1,5,6,7-tetrahydropyrrolo[3,2-c]pyridin-4-one] | 16.9 | 30.2 | 14.3 | 165 | 2.76 | 35.5 | 0.795 |

| Compound | IC50 (Bub1) | IC50 (PC9 cells) [nM] | IC50 (HCC-827 cells) [nM] | GI50 [1] [nM] | GI50 [2] [nM] | GI50 [3] [nM] | GI50 [4] [nM] | GI50 (Ba/F3-EGFR-L858R cells) [nM] | GI50 [5] [nM] | GI50 [6] [nM] |
| --- | --- | --- | --- | --- | --- | --- | --- | --- | --- | --- |
| COc1c(Cl)cccc1Nc1c(-c2ccncc2OCCC2CCCCO2)[nH]c2c1C(=O)N[C@H](C)C2 (single isomer, unassigned) [Example 87] | 19100 nM and > 20000 nM | 1.82 | < 3 | 15 | 13.2 | 21.6 | 138 | 1.29 | 22.1 | 0.804 |
| COCC(C)Oc1cnccc1-c1[nH]c2c(c1Nc1cccc(Cl)c1OC)C(=O)N[C@@H]1CCC[C@H]21 (single isomer, unassigned) [Example 51] | 7090 nM | 1.74 | < 3 | 11.4 | 12.8 | 6.89 | 30.8 | 1.32 | 19.5 | 0.564 |
